Measurements published in publication PMC4015918, “Conjugation to a SMAC mimetic potentiates sigma-2 ligand induced tumor cell death in ovarian cancer” (Molecular Cancer, 2014).
Entries after “also recorded” stand apart in the source; their conditions may differ.

What was measured:
SKOV3 cells = assay: Blocking study: competition with uptake of fluorescent sigma-2 ligand SW120, flow cytometry; assay type: cell-based; conditions: SKOV3 cells pretreated 30 min with increasing concentrations, then 10 nM SW120 for 30 min
Method: Figure 1 Compound structures and cell binding characteristics of SW IV-134. (A) The chemical structures of sigma-2 ligand SW43, the SMAC peptidomimetic SW IV-52, and the chemical conjugate SW IV-134. Note that the chirality of SW IV-52 is fully retained in the drug conjugate (asterisks). […] SKOV3 cells were pretreated with increasing concentration of SW IV-134, followed by incubation with SW120, prior to analysis by flow cytometry.
SKOV3 cells (3 × 10^4/well) were seeded into 6 cm plates for 24 hours before treatment. The cells were incubated with 5, 10, 50, and 100 μM doses of SW IV-134 for 30 minutes at 37°C. After this step, 10 nM SW120 was added to the cell culture medium containing SW IV-134. After 30 minute incubation at 37°C, cells were washed twice with phosphate buffered saline (PBS) and harvested with 0.05% trypsin EDTA (Life Technologies, Grand Island, NY). The cells were centrifuged at 1000 × g for 5 minutes and pellets washed twice with PBS. Internalization of SW120 was determined by flow cytometer (FACSCalibur, BD Biosciences, San Jose, CA).
Supplementary file 1476-4598-13-50-S2.pdf: Additional file 2: Figure S1 Receptor binding characteristics of the individual components of SW IV-134. SKOV3 cells were pretreated with increasing concentration of (A) SW43 and (B) SW IV-52, followed by incubation with SW120, prior to analysis by flow cytometry. […] Click here for file

[1] = test system: ovarian cancer cell lines (SKOV3, OVCAR3, HEY A8, HEY A8 MDR); assay: Cell viability (CellTiter-Glo) in a panel of four ovarian cancer cell lines; assay type: cell-based; conditions: increasing doses, 18 hours
Method: (A) SKOV3, (B) OVCAR3 (C) HEY A8 and (D) HEY A8 MDR cells were treated with increasing doses of SW43, SW IV-52, SW43 plus SW IV-52, and SW IV-134 for 18 hours. Cell viability was determined by CellTiter-Glo assays [p < 0.015 (A), NS (B), p < 0.017 (C), p < 0.034 (D), one-way ANOVA].
Cells (1 × 10^4) were seeded into 96 well plates. Treatment as described in the figure legends was initiated the following day. Cell viability was determined 18 hours after treatment using CellTiter-Glo Luminiscent Viability Assay (Promega, Madison, WI). Data were recorded with a SpectraMax Gemini microplate spectrofluorometer, Molecular Devices (Silicon Valley, CA).

[2] = test system: mouse 66 (mammary carcinoma) or MDA-MB-435 cells (human melanoma); parameters: method as in PMID 22201533; conditions: nude mice bearing mouse 66 or MDA-MB-435 tumors; cited from earlier work

SMILES | Blocking of SW120 uptake (SKOV3 cells) | Killing activity (cell viability) [1] | Tumor-selective uptake of SW120 in vivo [2]
CN[C@@H](C)C(=O)N[C@H](C(=O)N1CCC[C@H]1C(=O)N[C@@H]1CCCc2ccccc21)C(C)(C)C [SW IV-52] | nearly incapable of blocking the uptake of SW120; also recorded: nearly incapable of interfering with the uptake of SW120 | minimal single-agent activity at concentrations up to 200 μM | 
COc1ccc(C)cc1NC(=O)OC1CC2CCCC(C1)N2CCCCCCCCCCNc1ccc([N+](=O)[O-])c2nonc12 (stereo not drawn) [SW120] |  |  | taken up selectively by proliferating tumor cells and not by the generally quiescent peripheral blood mononuclear cells
